What all share (assay type): cell-based
The subject of one experiment is murine Jak2 V617F cells. Kind of experiment: MTS growth and proliferation assay of splicing factor inhibitors with and without Ruxolitinib. The settings on record: for IC50: read-out: IC50, concentration of functional inhibitor needed to inhibit cell growth of 50%; for effect between the functional inhibitor and Ruxolitinib on cell growth inhibition: combination with Ruxolitinib (0.5 μM). The method, then: Growth and proliferation was measured by MTS assay. Data shown are representative of 2 independent experiments with 8 technical replicates, mean±SD. The used splicing factor inhibitors are: a) GSK3326595, a Prmt5 inhibitor; b) Indisulam, a Rbm39 inhibitor; c) Herboxidiene; d) Pladienolide B.
The plates were read at 490 nm in Tecan Infinite M200 and the responses were analyzed using Graph Pad Prism.
After 72 hours, the incubation was stopped and growth measured by MTS assay.

In a further experiment the test system is Ybx1 pS30 and pS34. As to the kind of experiment: Drug-perturbed phosphoproteome profiling of Ybx1 phosphosites. Particulars: 10 μM for 1 hour, murine Jak2V617F BaF3. The text has this: The size and colour of the dots are proportional to the phosphosite intensity, Z-scored (log 2 intensity).
The cells were lysed in Gmdcl buffer and processed as mentioned in the phospho-proteome sample preparation protocol.

Experiment [1] has as its system primary human Jak2-mutated cells. Kind of experiment: Phosphoproteome of primary patient samples after Jak-i exposure. The settings on record: in vitro and in vivo exposure, 2 hours.
Description: In brief, peripheral blood samples from patients with Jak2 mutated myeloproliferative neoplasms were collected, granulocytes isolated, and treated with DMSO or Ruxolitinb 0.5 μM for 2 hours (either in vitro or in vivo). Cells were lysed and processed in 4% SDC buffer (4% SDC, 100 mM Tris pH8.5, 10 mM TCEP and 40 mM CAA), heated for 5 mins at 95° C. and cooled on ice for 15 min. Lysed samples were sonicated, heated again for 5 mins and BCA quantified. Approximately 350 μg of proteins were digested with LysC and Trypsin overnight at room temperature and phosphopeptides were enriched by TiO2 beads as described elsewhere.
Where [2] appears, read: Mus musculus, 72 h, in the presence of Ruxolitinib (0.5 μM), 72 hours, MTS.
Where [3] appears, read: functional inhibitor alone, 72 hours, MTS.
The mark [4] stands for this setting: in the presence of Ruxolitinib (0.5 μM), 72 hours, MTS.

The values below come from US20230158032A1, “PHARMACEUTICAL COMBINATION FOR THE TREATMENT OF MYELOPROLIFERATIVE NEOPLASMS” (Universitätsklinikum Jena, priority 2020, published 2023).

Entries after “also recorded” stand apart in the source; their conditions may differ. Like-named read-outs stand apart in the source and are kept apart here.

For the molecule `CC(=O)N1CCC(Nc2cc(C(=O)NC[C@H](O)CN3CCc4ccccc4C3)ncn2)CC1` [GSK3326595], the IC50 stood at 1000 nM with murine Jak2 V617F cells (Mus musculus, 72 h, functional inhibitor alone, 72 hours, MTS) and 4 nM with murine Jak2 V617F cells (setting [2]). For the same molecule, in the experiment with murine Jak2 V617F cells, the “effect between the functional inhibitor and Ruxolitinib on cell growth inhibition” value is reported as “synergistic effect”.

Regarding `CO[C@H]([C@@H](C)[C@H]1O[C@]1(C)C[C@H](C)/C=C/C=C(\C)[C@H]1O[C@@H](CC(=O)O)CC[C@@H]1C)[C@@H](C)O` [Herboxidiene], the “effect between the functional inhibitor and Ruxolitinib on cell growth inhibition” value in the experiment on murine Jak2 V617F cells is listed as “synergistic effect”. Further, the values for the IC50 in the experiment on murine Jak2 V617F cells (setting [3]) and in the experiment with murine Jak2 V617F cells (setting [4]) were about 16 nM and about 8 nM, respectively.

On to `NS(=O)(=O)c1ccc(S(=O)(=O)Nc2cccc3c(Cl)c[nH]c23)cc1` [Indisulam], for which the IC50 with murine Jak2 V617F cells (setting [2]) was found to be 500 nM. Besides, the “effect between the functional inhibitor and Ruxolitinib on cell growth inhibition” value with murine Jak2 V617F cells is on record as “synergistic effect”. Further, the “50% inhibition of cell growth reached or not” value in the experiment on murine Jak2 V617F cells (setting [3]) is “not able to reach a 50% inhibition of cell growth”.

For `O=C(NOC[C@H](O)CO)c1ccc(F)c(F)c1Nc1ccc(I)cc1F` [PD0325901], in the experiment on Ybx1 pS30 and pS34, the “Ybx1 phosphorylation at pS30 and pS34” value was “responsive; also recorded: able to inhibit”.

Regarding `N#CC[C@H](C1CCCC1)n1cc(-c2ncnc3[nH]ccc23)cn1` [Ruxolitinib], the phosphosites significantly altered in experiment [1] is listed as 618 phosphosites.

For Pladienolide B, the “effect between the functional inhibitor and Ruxolitinib on cell growth inhibition” value in the experiment on murine Jak2 V617F cells is “synergistic effect”. Besides, the IC50 was about 15 nM in the experiment with murine Jak2 V617F cells (setting [3]) and about 7 nM with murine Jak2 V617F cells (setting [4]).
